Experimental data reported in publication PMC6280737, “Modification Targeting the “Rana Box” Motif of a Novel Nigrocin Peptide From Hylarana latouchii Enhances and Broadens Its Potency Against Multiple Bacteria” (Frontiers in Microbiology, 2018).
Blank lines part the entries; values can stand above or below the molecule they belong to. Where a SMILES comes first, the peptide text is derived from it.

Legend:
[1] = system: E. coli (NCTC10418); assay type: cell-based, Escherichia coli; conditions: for MIC: NCTC10418, 16 h
Procedure: (§1) The antimicrobial activity of both natural and designed peptides was evaluated by MIC and MBC assays utilizing the broth dilution method. Microorganisms including S. aureus (NCTC10788), MRSA (NCTC 12493 and ATCC43300), Escherichia coli (E. coli) (NCTC 10418), Pseudomonas aeruginosa (P. aeruginosa) (ATCC 27853), Candida albicans (C. albicans) (NCYC 1467) and four clinical MRSA strains (DTMR8, DTMR24, DTMR37, and DTMR121) obtained at the First People’s Hospital of Zhenjiang, China were used. Molecular identification of these four clinical isolates was performed by PCR targeting mecA gene prior to use. After incubation of peptides (ranging from 1 μM to 512 μM, twofold serial dilution) and diluted microorganism cultures for 16 h, the absorbance values of the wells of the 96-well plates were detected at 550 nm with a Synergy HT plate reader (Biotech, United States) and the MICs were defined as the lowest concentration of peptides at which no apparent growth was detected. Ten microliters of culture in the wells were loaded onto Mueller-Hinton agar (MHA) medium and incubated at 37°C for another 18 h. The MBC of the peptide against a microbe was defined as the lowest concentration at which no evidence of colony growth was observed. Five replications were employed for all peptides with different concentrations and controls, and all measurements were made in triplicate.

[2] = system: C. albicans (NCYC1467); assay type: cell-based, Candida albicans; conditions: for MIC: NCYC1467, 16 h; for MBC: NCYC1467, 18 h
Procedure: as §1

[3] = system: S. aureus (NCTC10788); assay type: cell-based, Staphylococcus aureus; conditions: for MIC: NCTC10788, 16 h; for MBC: NCTC10788, 18 h
Procedure: as §1

[4] = system: horse erythrocytes; assay type: cell-based
Procedure: Hemolytic property of peptides was measured using erythrocytes prepared from defibrinated horse blood (TCS Biosciences, Botolph Claydon, Buckingham, United Kingdom) as indicated previously ([Wu et al., 2016]).
(§2) FIGURE 5 Toxicities of nigrocin-HL and its analog nigrocin-HLM in vitro and in vivo. Cytotoxicity of nigrocin-HL and nigrocin-HLM against (A) HaCaT and (B) 16HBE. Living cells after treatment with peptides were measured utilizing CCK8 assays, and viability was calculated relative to the untreated control. (C) Hemolysis of nigrocin-HL and nigrocin-HLM was determined against horse erythrocytes. All data represent mean ± SD from three independent experiments performed in triplicate (^∗P < 0.05, ^∗∗∗P < 0.001, compared with nigrocin-HL control group; ^###P < 0.001, compared with nigrocin-HLM control group). (D) In vivo toxicities of these two AMPs. Survival rate of mice in 7 days after single i.p. injection of nigrocin-HL and nigrocin-HLM (20 and 40 mg/kg) was recorded.

[5] = system: P. aeruginosa (ATCC27853); assay type: cell-based, Pseudomonas aeruginosa
Procedure: as §1

[6] = system: BALB/c mice; assay: In vivo acute toxicity, 7-day mortality; conditions: single i.p. injection
Procedure: Mice were administered with 20.0 and 40 mg/kg of nigrocin-HL and nigrocin-HLM (i.p.) and a 7-day mortality was recorded.
as §2

[7] = system: clinical MRSA strain DTMR121; assay type: cell-based, methicillin-resistant S. aureus
Procedure: as §1

[8] = system: clinical MRSA strain DTMR37; assay type: cell-based, methicillin-resistant S. aureus
Procedure: as §1

[9] = system: MRSA (ATCC43300); assay type: cell-based, methicillin-resistant S. aureus
Procedure: as §1

[10] = system: clinical MRSA strain DTMR8; assay type: cell-based, methicillin-resistant S. aureus
Procedure: as §1

[11] = system: MRSA (NCTC12493); assay type: cell-based, methicillin-resistant S. aureus; conditions: NCTC12493, 16 h
Procedure: as §1

[12] = system: clinical MRSA strain DTMR24; assay type: cell-based, methicillin-resistant S. aureus
Procedure: as §1

[13] = system: human bronchial epithelial cell line 16HBE; assay type: cell-based
Procedure: (§3) Human keratinocyte cell line HaCaT and human bronchial epithelial cell line 16HBE were obtained from the ATCC. Cells were harvested and diluted to 5 × 10^4 cells/ml using fresh medium. Ninety-nine microliters of diluted cells and 1 μl of peptides (final concentration ranging from 1 to 512 μM, twofold serial dilution, five duplicates) were mixed and seeded into 96-well culture plates. After incubation for 24 h, 10 μl CCK-8 was added into each well, followed by incubation at 37°C for 2 h. Absorbance of each well was determined, and the viabilities of cells were calculated as percentages of the control.
as §2

[14] = system: human keratinocyte cell line HaCaT; assay type: cell-based
Procedure: as §3, §2

[15] = system: mature MRSA biofilm; assay type: cell-based, methicillin-resistant S. aureus
Procedure: Minimum biofilm eradication concentration (MBEC) assay was carried out with a modified microtiter plate method as described previously ([Gao et al., 2017]).
FIGURE 4 Minimum biofilm eradication concentration (MBEC) of peptides against mature MRSA biofilm. All data represent means ± SD from three independent experiments performed in triplicate (^∗∗∗∗P < 0.0001 versus the viability of the corresponding concentration of nigrocin-HL).

[16] = Circular dichroism, percentage of α-helix by K2D3; assay type: physicochemical; conditions: CD 190-250 nm, 20°C, 50% TFE in 10 mM ammonium acetate buffer, 100 μM peptide (legend: 50 μM)
Procedure: Additionally, circular dichroism (CD) analyses were carried out utilizing a JASCO J815 Spectropolarimeter (JASCO Inc., United States). Samples were measured within the range of 190-250 nm at 20°C. The parameters were set as: 200 nm/min scanning speed, a bandwidth of 1 nm, and 0.5 nm data pitch. Both peptide samples were dissolved in […] ammonium acetate buffer and 50% TFE in 10 mM ammonium acetate buffer at a concentration of 100 μM. The percentage of the α-helix structure was predicted by the website […]^2 ([Louis-Jeune et al., 2012]).

MIC [1]: 84.87 µg/mL | MIC [2]: 42.43 µg/mL | MIC [3]: 42.43 µg/mL
Compound: CC[C@H](C)[C@H](NC(=O)CNC(=O)[C@H](CO)NC(=O)[C@H](CC(C)C)NC(=O)[C@H](CC(C)C)NC(=O)CN)C(=O)N[C@@H](CC(C)C)C(=O)NCC(=O)N[C@@H](C)C(=O)NCC(=O)N[C@@H](CCCCN)C(=O)N[C@@H](CCCCN)C(=O)N[C@H](C(=O)N[C@H](C(=O)O)C(C)C)[C@@H](C)CC [Nigrocin-HLD] (H-GLLSGILGAGKKIV-OH; N-terminus and C-terminus assumed)
MBC [2]: 339.46 µg/mL | MBC [3]: 169.73 µg/mL

Compound: CC[C@H](C)[C@H](NC(=O)CNC(=O)[C@H](CO)NC(=O)[C@H](CC(C)C)NC(=O)[C@H](CC(C)C)NC(=O)CN)C(=O)N[C@@H](CC(C)C)C(=O)NCC(=O)N[C@@H](C)C(=O)NCC(=O)N[C@@H](CCCCN)C(=O)N[C@@H](CCCCN)C(=O)N[C@H](C(=O)N[C@H](C(=O)N[C@@H](Cc1ccccc1)C(N)=O)C(C)C)[C@@H](C)CC [Nigrocin-HLM] (H-GLLSGILGAGKKIVF-NH2)
concentration up to which devoid of hemolytic activity [4]: > 128 µM | hemolytic activity (in words) [4]: negligible hemolytic activity | MIC [1]: 11.77 µg/mL | MBC ([1]; NCTC10418, 18 h): 23.55 µg/mL | MIC [2]: 2.94 µg/mL | MBC [2]: 5.89 µg/mL | MIC ([5]; ATCC27853, 16 h): 32 µM | MBC ([5]; ATCC27853, 18 h): 32 µM | 7-day mortality ([6]; 20 mg/kg): no mortality was observed | 7-day mortality ([6]; 40 mg/kg): no mortality was observed | MIC ([7]; clinical strain DTMR121, 16 h): 1 µM | MBC ([7]; clinical strain DTMR121, 18 h): 1.47/1.47 mg/l | MIC ([8]; clinical strain DTMR37, 16 h): 1 µM | MBC ([8]; clinical strain DTMR37, 18 h): 2.94 µg/mL | MIC ([9]; ATCC43300, 16 h): 1 µM | MBC ([9]; ATCC43300, 18 h): 5.89 µg/mL | MIC ([10]; clinical strain DTMR8, 16 h): 1 µM | MBC ([10]; clinical strain DTMR8, 18 h): 2.94 µg/mL | MIC [11]: 4 µM | MIC ([12]; clinical strain DTMR24, 16 h): 1 µM | MBC ([12]; clinical strain DTMR24, 18 h): 1.47/1.47 mg/l | MIC [3]: 2.94 µg/mL | MBC [3]: 5.89 µg/mL | lowest dosage at which cell growth inhibition occurred [13]: > 512 µM | lowest dosage at which cell growth inhibition occurred [14]: > 512 µM | MBEC [15]: 8 µM

Compound: CC[C@H](C)[C@H](NC(=O)CNC(=O)[C@H](CO)NC(=O)[C@H](CC(C)C)NC(=O)[C@H](CC(C)C)NC(=O)CN)C(=O)N[C@@H](CC(C)C)C(=O)NCC(=O)N[C@@H](C)C(=O)NCC(=O)N[C@@H](CCCCN)C(=O)N[C@@H](CCCCN)C(=O)N[C@H](C(=O)N[C@H](C(=O)N[C@H]1CSSC[C@@H](C(=O)O)NC(=O)[C@H](CC(C)C)NC(=O)CNC(=O)[C@H](CO)NC(=O)[C@H](CC(C)C)NC(=O)CNC1=O)C(C)C)[C@@H](C)CC [Nigrocin-HL] (HELM PEPTIDE1{G.L.L.S.G.I.L.G.A.G.K.K.I.V.C.G.L.S.G.L.C}$PEPTIDE1,PEPTIDE1,15:R3-21:R3$$$V2.0; N-terminus and C-terminus assumed)
hemolytic activity (in words) [4]: obvious hemolysis | MIC [1]: 125.40 µg/mL | MIC [2]: 62.70 µg/mL | MBC [2]: 501.61 µg/mL | 7-day mortality ([6]; 20 mg/kg): mice all died from day 3 to day 7 | 7-day mortality ([6]; 40 mg/kg): mice all died from day 3 to day 7 | MIC [3]: 62.70 µg/mL | MBC [3]: 250.81 µg/mL | lowest dosage at which cell growth inhibition occurred [13]: 32 µM | lowest dosage at which cell growth inhibition occurred [14]: 32 µM | Helicity (%) [16]: 31.28% | MBEC [15]: > 16 µM
